Measurements as given in patent publication US9708314B2, “Heterocyclic amide compound” (NISSAN CHEMICAL INDUSTRIES, LTD., priority 2013, dated 2017).

Assays:
Assay type in all cases: in vivo
[1] = tested on: directly sowed Oryza sativa; test: Test Example 3: effect on crop by application to foliage (Wagner pot, water depth 0.1-0.5 cm); details: Nineteenth Table; application to foliage; application herbicide amount 320 g/ha
Method in brief: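 Scores (0–5) reflect herbicidal ratio three weeks after a foliar spray: 0 is 5% or less, 5 is 90% or more. Plants had grown 14 days in alluvial soil pots in a 25–30 °C greenhouse before treatment with water-diluted emulsion at a set g/ha.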

[2] = tested on: Apera spica-venti.; test: Test Example 4: herbicidal effect by application to foliage (diluvial soil, plastic box); details: for L (Apera spica-venti.) herbicidal effect grade: Application herbicide amount 320 g/ha, foliage application; for L: herbicidal effect on Apera spica-venti.: application to foliage, application herbicide amount 320 g/ha
Method in brief: (§1)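 Emulsion-formulated compound, diluted to a predetermined g/ha dose, applied by small sprayer to leaves and stems of 14-day-old seedlings grown in sterilized diluvial soil. Effect rated on 0–5 herbicidal-ratio scale three weeks on.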

[3] = tested on: Alopecurus myosuroides; test: as above; details: for J (Alopecurus myosuroides) herbicidal effect grade: Application herbicide amount 320 g/ha, foliage application; for J: herbicidal effect on Alopecurus myosuroides: application to foliage, application herbicide amount 320 g/ha
Method in brief: as §1

[4] = tested on: Digitaria ciliaris; test: as above; details: for F (Digitaria ciliaris) herbicidal effect grade: Application herbicide amount 320 g/ha, foliage application; for F: herbicidal effect on Digitaria ciliaris: application to foliage, application herbicide amount 320 g/ha
Method in brief: as §1

[5] = tested on: Setaria viridis; test: as above; details: for G (Setaria viridis) herbicidal effect grade: Application herbicide amount 320 g/ha, foliage application; for G: herbicidal effect on Setaria viridis: application to foliage, application herbicide amount 320 g/ha
Method in brief: as §1

[6] = tested on: Galium spurium; test: as above; details: for Q (Galium spurium) herbicidal effect grade: Application herbicide amount 320 g/ha, foliage application
Method in brief: as §1

[7] = tested on: Amaranthus retroflexus; test: as above; details: for N (Amaranthus retroflexus) herbicidal effect grade: Application herbicide amount 320 g/ha, foliage application; for N: herbicidal effect on Amaranthus retroflexus: application to foliage, application herbicide amount 320 g/ha
Method in brief: as §1

[8] = tested on: Echinochloa crus-galli var. crus-galli; test: as above; details: for H (Echinochloa crus-galli var. crus-galli) herbicidal effect grade: Application herbicide amount 320 g/ha, foliage application; for H: herbicidal effect on Echinochloa crus-galli var. crus-galli: application to foliage, application herbicide amount 320 g/ha
Method in brief: as §1

[9] = tested on: Abutilon theophrasti; test: as above; details: for M (Abutilon theophrasti) herbicidal effect grade: Application herbicide amount 320 g/ha, foliage application; for M: herbicidal effect on Abutilon theophrasti: application to foliage, application herbicide amount 320 g/ha
Method in brief: as §1

[10] = tested on: Veronica persica; test: as above; details: for R (Veronica persica) herbicidal effect grade: Application herbicide amount 320 g/ha, foliage application; for R: herbicidal effect on Veronica persica: application to foliage, application herbicide amount 320 g/ha
Method in brief: as §1

[11] = tested on: Stellaria media; test: as above; details: for P (Stellaria media) herbicidal effect grade: Application herbicide amount 320 g/ha, foliage application; for P: herbicidal effect on Stellaria media: application to foliage, application herbicide amount 320 g/ha
Method in brief: as §1

[12] = tested on: Lolium multiflorum Lam.; test: as above; details: for K (Lolium multiflorum Lam.) herbicidal effect grade: Application herbicide amount 320 g/ha, foliage application; for K: herbicidal effect on Lolium multiflorum Lam.: application to foliage, application herbicide amount 320 g/ha
Method in brief: as §1

[13] = tested on: Avena fatua; test: as above; details: for I (Avena fatua) herbicidal effect grade: Application herbicide amount 320 g/ha, foliage application; for I: herbicidal effect on Avena fatua: application to foliage, application herbicide amount 320 g/ha
Method in brief: as §1

[14] = tested on: Chenopodium album; test: as above; details: for O (Chenopodium album) herbicidal effect grade: Application herbicide amount 320 g/ha, foliage application; for O: herbicidal effect on Chenopodium album: application to foliage, application herbicide amount 320 g/ha
Method in brief: as §1

SMILES | b (effect on crop grade) [1] | L (Apera spica-venti.) herbicidal effect grade [2] | J (Alopecurus myosuroides) herbicidal effect grade [3] | F (Digitaria ciliaris) herbicidal effect grade [4] | G (Setaria viridis) herbicidal effect grade [5] | Q (Galium spurium) herbicidal effect grade [6] | N (Amaranthus retroflexus) herbicidal effect grade [7] | H (Echinochloa crus-galli var. crus-galli) herbicidal effect grade [8] | M (Abutilon theophrasti) herbicidal effect grade [9] | R (Veronica persica) herbicidal effect grade [10] | P (Stellaria media) herbicidal effect grade [11] | K (Lolium multiflorum Lam.) herbicidal effect grade [12] | I (Avena fatua) herbicidal effect grade [13] | O (Chenopodium album) herbicidal effect grade [14] | L: herbicidal effect on Apera spica-venti. [2] | J: herbicidal effect on Alopecurus myosuroides [3] | F: herbicidal effect on Digitaria ciliaris [4] | G: herbicidal effect on Setaria viridis [5] | N: herbicidal effect on Amaranthus retroflexus [7] | H: herbicidal effect on Echinochloa crus-galli var. crus-galli [8] | other results
CCN(C)c1nnc2c(C(=O)Nc3nnc(C)o3)ccc(C(F)(F)F)n12 [1-134] | 2 (Herbicidal ratio of 20% or more and less than 40%) | 1 (Herbicidal ratio of 5% or more and less than 20%) | 1 (Herbicidal ratio of 5% or more and less than 20%) | 4 (Herbicidal ratio of 70% or more and less than 90%) | 3 (Herbicidal ratio of 40% or more and less than 70%) | 3 (Herbicidal ratio of 40% or more and less than 70%) | 3 (Herbicidal ratio of 40% or more and less than 70%) | 5 (Herbicidal ratio of 90% or more (almost completely withered)) | 4 (Herbicidal ratio of 70% or more and less than 90%) | 4 (Herbicidal ratio of 70% or more and less than 90%) | 4 (Herbicidal ratio of 70% or more and less than 90%) | 1 (Herbicidal ratio of 5% or more and less than 20%) | 0 (Herbicidal ratio of 5% or less (almost no effect)) | 5 (Herbicidal ratio of 90% or more (almost completely withered)) |  |  |  |  |  |  | 
COc1ccc(-c2nnc3c(C(=O)Nc4nnnn4C)ccc(C(F)(F)F)n23)cc1 [2-011] | 5 (Herbicidal ratio of 90% or more (almost completely withered)) |  |  |  |  |  |  |  |  |  |  |  |  |  | 3 (Herbicidal ratio of 40% or more and less than 70%) | 3 (Herbicidal ratio of 40% or more and less than 70%) | 5 (Herbicidal ratio of 90% or more (almost completely withered)) | 3 (Herbicidal ratio of 40% or more and less than 70%) | 5 (Herbicidal ratio of 90% or more (almost completely withered)) | 5 (Herbicidal ratio of 90% or more (almost completely withered)) | Q: herbicidal effect on Galium spurium ([6]; application to foliage, application herbicide amount 320 g/ha): 3 (Herbicidal ratio of 40% or more and less than 70%); M: herbicidal effect on Abutilon theophrasti [9]: 5 (Herbicidal ratio of 90% or more (almost completely withered)); R: herbicidal effect on Veronica persica [10]: 5 (Herbicidal ratio of 90% or more (almost completely withered)); P: herbicidal effect on Stellaria media [11]: 5 (Herbicidal ratio of 90% or more (almost completely withered)); K: herbicidal effect on Lolium multiflorum Lam. [12]: 2 (Herbicidal ratio of 20% or more and less than 40%); I: herbicidal effect on Avena fatua [13]: 3 (Herbicidal ratio of 40% or more and less than 70%); O: herbicidal effect on Chenopodium album [14]: 5 (Herbicidal ratio of 90% or more (almost completely withered))
CCOc1nnc2c(C(=O)Nc3nnco3)ccc(C(F)(F)F)n12 [1-112] | 0 (Herbicidal ratio of 5% or less (almost no effect)) | 0 (Herbicidal ratio of 5% or less (almost no effect)) | 0 (Herbicidal ratio of 5% or less (almost no effect)) | 1 (Herbicidal ratio of 5% or more and less than 20%) | 0 (Herbicidal ratio of 5% or less (almost no effect)) | 0 (Herbicidal ratio of 5% or less (almost no effect)) | 4 (Herbicidal ratio of 70% or more and less than 90%) | 2 (Herbicidal ratio of 20% or more and less than 40%) | 3 (Herbicidal ratio of 40% or more and less than 70%) | 5 (Herbicidal ratio of 90% or more (almost completely withered)) | 4 (Herbicidal ratio of 70% or more and less than 90%) | 0 (Herbicidal ratio of 5% or less (almost no effect)) | 0 (Herbicidal ratio of 5% or less (almost no effect)) | 5 (Herbicidal ratio of 90% or more (almost completely withered)) |  |  |  |  |  |  | 
COCCOCc1nnc2c(C(=O)Nc3nnco3)ccc(C(F)(F)F)n12 [1-107] | 3 (Herbicidal ratio of 40% or more and less than 70%) | 3 (Herbicidal ratio of 40% or more and less than 70%) | 3 (Herbicidal ratio of 40% or more and less than 70%) | 5 (Herbicidal ratio of 90% or more (almost completely withered)) | 5 (Herbicidal ratio of 90% or more (almost completely withered)) | 4 (Herbicidal ratio of 70% or more and less than 90%) | 5 (Herbicidal ratio of 90% or more (almost completely withered)) | 5 (Herbicidal ratio of 90% or more (almost completely withered)) | 4 (Herbicidal ratio of 70% or more and less than 90%) | 5 (Herbicidal ratio of 90% or more (almost completely withered)) | 5 (Herbicidal ratio of 90% or more (almost completely withered)) | 3 (Herbicidal ratio of 40% or more and less than 70%) | 4 (Herbicidal ratio of 70% or more and less than 90%) | 5 (Herbicidal ratio of 90% or more (almost completely withered)) |  |  |  |  |  |  | 
Cc1nnc(NC(=O)c2ccc(C(F)(F)F)n3c(N(C)C4CCCCC4)nnc23)o1 [1-133] | 0 (Herbicidal ratio of 5% or less (almost no effect)) | 0 (Herbicidal ratio of 5% or less (almost no effect)) | 0 (Herbicidal ratio of 5% or less (almost no effect)) | 3 (Herbicidal ratio of 40% or more and less than 70%) | 0 (Herbicidal ratio of 5% or less (almost no effect)) | 1 (Herbicidal ratio of 5% or more and less than 20%) | 3 (Herbicidal ratio of 40% or more and less than 70%) | 4 (Herbicidal ratio of 70% or more and less than 90%) | 3 (Herbicidal ratio of 40% or more and less than 70%) | 2 (Herbicidal ratio of 20% or more and less than 40%) | 4 (Herbicidal ratio of 70% or more and less than 90%) | 0 (Herbicidal ratio of 5% or less (almost no effect)) | 0 (Herbicidal ratio of 5% or less (almost no effect)) | 4 (Herbicidal ratio of 70% or more and less than 90%) |  |  |  |  |  |  | 
CC(C)c1nnc2c(C(=O)N(C)c3nnnn3C)ccc(C(F)(F)F)n12 [2-023] | 1 (Herbicidal ratio of 5% or more and less than 20%) |  |  |  |  |  |  |  |  |  |  |  |  |  | 0 (Herbicidal ratio of 5% or less (almost no effect)) | 0 (Herbicidal ratio of 5% or less (almost no effect)) | 1 (Herbicidal ratio of 5% or more and less than 20%) | 1 (Herbicidal ratio of 5% or more and less than 20%) | 5 (Herbicidal ratio of 90% or more (almost completely withered)) | 4 (Herbicidal ratio of 70% or more and less than 90%) | M: herbicidal effect on Abutilon theophrasti [9]: 3 (Herbicidal ratio of 40% or more and less than 70%); R: herbicidal effect on Veronica persica [10]: 4 (Herbicidal ratio of 70% or more and less than 90%); P: herbicidal effect on Stellaria media [11]: 3 (Herbicidal ratio of 40% or more and less than 70%); K: herbicidal effect on Lolium multiflorum Lam. [12]: 0 (Herbicidal ratio of 5% or less (almost no effect)); I: herbicidal effect on Avena fatua [13]: 0 (Herbicidal ratio of 5% or less (almost no effect)); O: herbicidal effect on Chenopodium album [14]: 4 (Herbicidal ratio of 70% or more and less than 90%)
